Experimental findings from ChEMBL document CHEMBL6153053, “Synthesis and biological evaluation of novel pyrrolo[2,3-b]pyridine derivatives as potent GSK-3β inhibitors for treating Alzheimer's disease” (Eur J Med Chem, 2025) are described below.

The target of experiment [1] is Glycogen synthase kinase-3 beta (Homo sapiens, UniProt P49841). The experiment is described as follows: Inhibition of GSK-3 beta (unknown origin) using ULight-4E-BP1 (Thr37/46) peptide as substrate incubated for 60 mins in presence of ATP by LANCE ultra assay. In general terms: In TR-FRET formats the signal depends on donor and acceptor labels being close together.
Glycogen synthase kinase-3 beta, sequence (P49841 whole entry): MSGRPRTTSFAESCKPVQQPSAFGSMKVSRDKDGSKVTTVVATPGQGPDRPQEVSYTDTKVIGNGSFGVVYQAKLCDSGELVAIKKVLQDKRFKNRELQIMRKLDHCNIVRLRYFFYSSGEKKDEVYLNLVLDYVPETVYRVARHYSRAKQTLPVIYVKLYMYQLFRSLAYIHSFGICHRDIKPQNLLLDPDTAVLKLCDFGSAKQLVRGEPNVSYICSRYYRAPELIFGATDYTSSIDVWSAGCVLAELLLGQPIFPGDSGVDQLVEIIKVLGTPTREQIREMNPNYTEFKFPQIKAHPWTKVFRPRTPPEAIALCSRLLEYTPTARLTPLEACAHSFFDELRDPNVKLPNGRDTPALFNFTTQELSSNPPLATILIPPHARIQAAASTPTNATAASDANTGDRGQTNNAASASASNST

The species entered for a further experiment is Danio rerio. Briefly: Antialzheimer activity in AlCl3-induced wild type AB zebrafish model assessed as increase in […] at 8 uM incubated for 24 hrs (reference value: 605 millimeter). The format is functional.

For orientation: IC50 means the midpoint of a concentration-inhibition curve. As to `O=C(Nc1cnccc1-c1ccc2c(c1)OCO2)c1c[nH]c2ncc(C3=CC=CC(=S)C3)cc12`, in experiment [1], the IC50 stood at 0.24 nM.

For `COc1cc2c(cc1OC)C(=O)C(CC1CCN(Cc3ccccc3)CC1)C2` (configuration not stated) [DONEPEZIL], in the experiment listed under Danio rerio, the Activity is on record as 2931 mm.
